Where two headings read alike, the source gives them in different places.
How the values were obtained:
WDR5 = WDR5 (Homo sapiens (Human), UniProt P61964); experiment: Surface Plasmon Resonance (SPR) assay, KD and residence time; assay type: binding; conditions: read-out: WDR5 binding affinity (KD)
MV4-11 cells = experiment: Cell proliferation assay (ATPlite); assay type: cell-based; conditions: Homo sapiens, MV4-11, 120 h; MV-411 cells, five days; read-out: In vitro whole cell potency in MV-411 cells, (IC50)
Outline: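 MV4-11 cells at 1,000 cells/well in Alpha-MEM with 10% FBS were dosed over a 10-point range (top 10 μM). Cells were grown 5 days at 37° C, 5% CO2. Viability was read as ATPlite luminescence.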

[1] = surface plasmon resonance (SPR) assay
[2] = surface plasmon resonance (SPR)

Structure (SMILES) | Kd (WDR5; [1]) | IC50 (MV4-11 cells) | Kd (WDR5; [2])
CC(=O)Nc1ccc(-c2cc(NC(=O)c3c[nH]c(=O)cc3C(F)(F)F)c(N3C[C@@H](C)N(C)[C@@H](C)C3)cc2F)cn1 [Example 64, N-[5-(6-acetamidopyridin-3-yl)-4-fluoro-2-[(3R,5S)-3,4,5-trimethylpiperazin-1-yl]phenyl]-6-oxo-4-(trifluoromethyl)-1H-pyridine-3-carboxamide] | 0.199 nM | 366 nM | –
COCCOc1ccc(-c2cc(NC(=O)c3c[nH]c(=O)cc3C(F)(F)F)c(N3C[C@@H](C)N(C)[C@@H](C)C3)cc2F)cc1 [Example 90, N-[4-fluoro-5-[4-(2-methoxyethoxy)phenyl]-2-[(3R,5S)-3,4,5-trimethylpiperazin-1-yl]phenyl]-6-oxo-4-(trifluoromethyl)-1H-pyridine-3-carboxamide] | 0.441 nM | 120 nM | –
CC(C)COc1ncc(-c2cc(NC(=O)c3c[nH]c(=O)cc3C(F)(F)F)c(N3C[C@@H](C)N(C)[C@@H](C)C3)cc2F)cc1Cl [Example 91, N-[5-[5-chloro-6-(2-methylpropoxy)pyridin-3-yl]-4-fluoro-2-[(3R,5S)-3,4,5-trimethylpiperazin-1-yl]phenyl]-6-oxo-4-(trifluoromethyl)-1H-pyridine-3-carboxamide] | 4.47 nM | 257 nM | –
C[C@@H]1CN(c2cc(F)c(-c3ccc(OCC4CC4)c(Cl)c3)cc2NC(=O)c2c[nH]c(=O)cc2C(F)(F)F)C[C@H](C)N1C [Example 92, N-[5-[3-chloro-4-(cyclopropylmethoxy)phenyl]-4-fluoro-2-[(3R,5S)-3,4,5-trimethylpiperazin-1-yl]phenyl]-6-oxo-4-(trifluoromethyl)-1H-pyridine-3-carboxamide] | 10.9 nM | 71 nM | –
C[C@@H]1CN(c2cc(F)c(-c3cnc(N4CCOCC4)nc3)cc2NC(=O)c2cn(C)c(=O)cc2C(F)(F)F)C[C@H](C)N1C [Example 93, N-[4-fluoro-5-(2-morpholin-4-ylpyrimidin-5-yl)-2-[(3R,5S)-3,4,5-trimethylpiperazin-1-yl]phenyl]-1-methyl-6-oxo-4-(trifluoromethyl)pyridine-3-carboxamide] | 2.17 nM | 48 nM | –
C[C@@H]1CN(c2ncc(-c3cc(NC(=O)c4c[nH]c(=O)cc4C(F)(F)F)c(N4C[C@@H](C)N(C)[C@@H](C)C4)cc3F)cn2)C[C@H](C)O1 [Example 161, N-[4-fluoro-5-[2-[(2R,6S)-2,6-dimethylmorpholin-4-yl]pyrimidin-5-yl]-2-[(3S,5R)-3,4,5-trimethylpiperazin-1-yl]phenyl]-6-oxo-4-(trifluoromethyl)-1H-pyridine-3-carboxamide] | 1 nM | 28 nM | –
C[C@@H]1CN(c2cc(F)c(-c3cnc(N(C)C)c(F)c3)cc2NC(=O)c2c[nH]c(=O)cc2C(F)(F)F)C[C@H](C)N1C [Example 221, N-[5-[6-(dimethylamino)-5-fluoropyridin-3-yl]-4-fluoro-2-[(3R,5S)-3,4,5-trimethylpiperazin-1-yl]phenyl]-6-oxo-4-(trifluoromethyl)-1H-pyridine-3-carboxamide] | 0.769 nM | 120 nM | –
C[C@@H]1CN(c2cc(F)c(C3=CCN(c4ncccn4)CC3)cc2NC(=O)c2c[nH]c(=O)cc2C(F)(F)F)C[C@H](C)N1C [Example 245, N-[4-fluoro-5-(1-pyrimidin-2-yl-3,6-dihydro-2H-pyridin-4-yl)-2-[(3R,5S)-3,4,5-trimethylpiperazin-1-yl]phenyl]-6-oxo-4-(trifluoromethyl)-1H-pyridine-3-carboxamide] | 1.39 nM | 125 nM | –
C[C@@H]1CN(c2cc(F)c(-c3ccc(N4CCOCC4)c(F)c3)cc2NC(=O)c2cn(C)c(=O)cc2C(F)(F)F)C[C@H](C)N1C [Example 247, N-[4-fluoro-5-(3-fluoro-4-morpholin-4-ylphenyl)-2-[(3R,5S)-3,4,5-trimethylpiperazin-1-yl]phenyl]-1-methyl-6-oxo-4-(trifluoromethyl)pyridine-3-carboxamide] | 5.16 nM | 854 nM | –
C[C@@H]1CN(c2cc(F)c(-c3cnc(N4CCOCC4)nc3)cc2NC(=O)c2ccc(F)cc2C(F)(F)F)C[C@H](C)N1C [Example 248, 4-fluoro-N-[4-fluoro-5-(2-morpholin-4-ylpyrimidin-5-yl)-2-[(3R,5S)-3,4,5-trimethylpiperazin-1-yl]phenyl]-2-(trifluoromethyl)benzamide] | 1.33 nM | 137 nM | –
COc1cc(N2CC=C(c3cc(NC(=O)c4c[nH]c(=O)cc4C(F)(F)F)c(N4C[C@@H](C)N(C)[C@@H](C)C4)cc3F)CC2)ncn1 [Example 274, N-[4-fluoro-5-[1-(6-methoxypyrimidin-4-yl)-3,6-dihydro-2H-pyridin-4-yl]-2-[(3R,5S)-3,4,5-trimethylpiperazin-1-yl]phenyl]-6-oxo-4-(trifluoromethyl)-1H-pyridine-3-carboxamide] | 1.29 nM | 75 nM | –
C[C@@H]1CN(c2cc(F)c(C3=CCCN(c4ncccn4)C3)cc2NC(=O)c2c[nH]c(=O)cc2C(F)(F)F)C[C@H](C)N1C [Example 334, N-[4-fluoro-5-(1-pyrimidin-2-yl-3,6-dihydro-2H-pyridin-5-yl)-2-[(3R,5S)-3,4,5-trimethylpiperazin-1-yl]phenyl]-6-oxo-4-(trifluoromethyl)-1H-pyridine-3-carboxamide] | 0.095 nM | 31 nM | –
C[C@@H]1CN(c2cc(F)c(-c3ccnc(N4CCOCC4)n3)cc2NC(=O)c2c[nH]c(=O)cc2C(F)(F)F)C[C@H](C)N1C [Example 378, N-[4-fluoro-5-(2-morpholin-4-ylpyrimidin-4-yl)-2-[(3R,5S)-3,4,5-trimethylpiperazin-1-yl]phenyl]-6-oxo-4-(trifluoromethyl)-1H-pyridine-3-carboxamide] | 0.877 nM | 20 nM | –
C[C@@H]1CN(c2cc(F)c(C3=CCCN(c4ncc(CO)cn4)C3)cc2NC(=O)c2c[nH]c(=O)cc2C(F)(F)F)C[C@H](C)N1C [Example 413, N-[4-fluoro-5-[1-[5-(hydroxymethyl)pyrimidin-2-yl]-3,6-dihydro-2H-pyridin-5-yl]-2-[(3R,5S)-3,4,5-trimethylpiperazin-1-yl]phenyl]-6-oxo-4-(trifluoromethyl)-1H-pyridine-3-carboxamide] | – | 57 nM | 0.302 nM
C[C@@H]1CN(c2cc(F)c(C3=CCCN(c4ncc(CN(C)C)cn4)C3)cc2NC(=O)c2c[nH]c(=O)cc2C(F)(F)F)C[C@H](C)N1C [Example 414, N-[5-[1-[5-[(dimethylamino)methyl]pyrimidin-2-yl]-3,6-dihydro-2H-pyridin-5-yl]-4-fluoro-2-[(3R,5S)-3,4,5-trimethylpiperazin-1-yl]phenyl]-6-oxo-4-(trifluoromethyl)-1H-pyridine-3-carboxamide] | – | 8 nM | 0.658 nM
C[C@@H]1CN(c2cc(F)c(C3=CCCN(c4ncc(CN5CCOCC5)cn4)C3)cc2NC(=O)c2c[nH]c(=O)cc2C(F)(F)F)C[C@H](C)N1C [Example 415, N-[4-fluoro-5-[1-[5-(morpholin-4-ylmethyl)pyrimidin-2-yl]-3,6-dihydro-2H-pyridin-5-yl]-2-[(3R,5S)-3,4,5-trimethylpiperazin-1-yl]phenyl]-6-oxo-4-(trifluoromethyl)-1H-pyridine-3-carboxamide] | – | 17 nM | 1.1 nM
C[C@@H]1CN(c2ncc(-c3cc(NC(=O)c4ccc(F)cc4C(F)(F)F)c(N4CCN(C)[C@@H](C)C4)cc3F)cn2)CCO1 [Example 456, 4-fluoro-N-[4-fluoro-2-[(3S)-3,4-dimethylpiperazin-1-yl]-5-[2-[(2R)-2-methylmorpholin-4-yl]pyrimidin-5-yl]phenyl]-2-(trifluoromethyl)benzamide] | – | 89 nM | 1.08 nM
C[C@@H]1CN(c2cc(F)c(C3=CCN(C(=O)OC4(C)CCC4)CC3)cc2NC(=O)c2c[nH]c(=O)cc2C(F)(F)F)C[C@H](C)N1C [Example 470, (1-methylcyclobutyl) 4-[2-fluoro-5-[[6-oxo-4-(trifluoromethyl)-1H-pyridine-3-carbonyl]amino]-4-[(3R,5S)-3,4,5-trimethylpiperazin-1-yl]phenyl]-3,6-dihydro-2H-pyridine-1-carboxylate] | – | 56 nM | 4.27 nM
C[C@@H]1CN(c2cc(F)c(C3=CCCN(C(=O)OC4(C)CCC4)C3)cc2NC(=O)c2c[nH]c(=O)cc2C(F)(F)F)C[C@H](C)N1C [Example 471, (1-methylcyclobutyl) 5-[2-fluoro-5-[[6-oxo-4-(trifluoromethyl)-1H-pyridine-3-carbonyl]amino]-4-[(3R,5S)-3,4,5-trimethylpiperazin-1-yl]phenyl]-3,6-dihydro-2H-pyridine-1-carboxylate] | – | 78 nM | 0.494 nM
C[C@@H]1CN(c2cc(F)c(C3=CCN(C(=O)OC4(C)CCC4)C3)cc2NC(=O)c2c[nH]c(=O)cc2C(F)(F)F)C[C@H](C)N1C [Example 472, (1-methylcyclobutyl) 3-[2-fluoro-5-[[6-oxo-4-(trifluoromethyl)-1H-pyridine-3-carbonyl]amino]-4-[(3R,5S)-3,4,5-trimethylpiperazin-1-yl]phenyl]-2,5-dihydropyrrole-1-carboxylate] | – | 104 nM | 0.407 nM
C[C@@H]1CN(c2cc(F)c(-c3nc(C(=O)N(C)CC4CC4)cs3)cc2NC(=O)c2c[nH]c(=O)cc2C(F)(F)F)C[C@H](C)N1C [Example 483, N-(cyclopropylmethyl)-2-[2-fluoro-5-[[6-oxo-4-(trifluoromethyl)-1H-pyridine-3-carbonyl]amino]-4-[(3R,5S)-3,4,5-trimethylpiperazin-1-yl]phenyl]-N-methyl-1,3-thiazole-4-carboxamide] | – | 24 nM | 3.97 nM
C[C@@H]1CN(c2ccc(-c3cc(NC(=O)c4c[nH]c(=O)cc4C(F)F)c(N4C[C@@H](C)N(C)[C@@H](C)C4)cc3F)cn2)CCO1 [Example 508, 4-(difluoromethyl)-N-[4-fluoro-5-[6-[(2R)-2-methylmorpholin-4-yl]pyridin-3-yl]-2-[(3R,5S)-3,4,5-trimethylpiperazin-1-yl]phenyl]-6-oxo-1H-pyridine-3-carboxamide] | – | 73 nM | 2.66 nM

Source: patent US11319299B2, “Substituted carboxamides as inhibitors of WDR5 protein-protein binding” (PROPELLON THERAPEUTICS INC., priority 2016, dated 2022)
